Assay results taken from the NIST ThermoML archive (doi:10.1021/je3009073).
± gives the expanded uncertainty stated by the source.

Key:
[1] = 101.33 kPa, Liquid; for viscosity: Capillary tube (Ostwald / Ubbelohde) method; for mass density: Pycnometric method
[2] = xn = mol fraction of the nth substance listed; conditions: 101 kPa, Liquid, x1 = 1; for viscosity: Capillary tube (Ostwald / Ubbelohde) method; for mass density: Pycnometric method

Structure (SMILES)	viscosity ([1]; 303.15 K) [mPa·s]	mass density ([1]; 303.15 K) [kg/m3]	viscosity ([1]; 308.15 K) [mPa·s]	mass density ([1]; 308.15 K) [kg/m3]	viscosity ([1]; 313.15 K) [mPa·s]	mass density ([1]; 313.15 K) [kg/m3]	viscosity ([1]; 318.15 K) [mPa·s]	mass density ([1]; 318.15 K) [kg/m3]	viscosity ([1]; 323.15 K) [mPa·s]	mass density ([1]; 323.15 K) [kg/m3]	viscosity ([1]; 328.15 K) [mPa·s]	mass density ([1]; 328.15 K) [kg/m3]	viscosity ([2]; 303.15 K) [mPa·s]	viscosity ([2]; 308.15 K) [mPa·s]	viscosity ([2]; 313.15 K) [mPa·s]	viscosity ([2]; 318.15 K) [mPa·s]	viscosity ([2]; 323.15 K) [mPa·s]	mass density ([2]; 323.15 K) [kg/m3]	viscosity ([2]; 328.15 K) [mPa·s]	mass density ([2]; 328.15 K) [kg/m3]
NCCO [2-aminoethan-1-ol]	14.55 ± 0.61	1007.9 ± 2	11.86 ± 0.5	1004.2 ± 2	9.65 ± 0.41	1000.5 ± 2.1	7.91 ± 0.33	996.2 ± 2.1	6.72 ± 0.28	992.7 ± 2.1	5.74 ± 0.24	988.7 ± 2.1								
O [water] + CC(O)C(=O)[O-].[NH3+]CCO													0.8 ± 0.03	0.72 ± 0.03	0.65 ± 0.03	0.6 ± 0.02	0.55 ± 0.02	988 ± 2	0.5 ± 0.02	985.7 ± 2
O [water] + CC(O)C(=O)[O-].CN(C)C(N)=[N+](C)C													0.8 ± 0.03	0.72 ± 0.03	0.65 ± 0.03	0.6 ± 0.1	0.55 ± 0.02	988 ± 2	0.5 ± 0.02	985.7 ± 2
